Results taken from US20080194880A1, “Process For the Preparation of Polymorphs of Mesotrione” (priority 2004, published 2008).

Experiments:
Type in all cases: physicochemical
[1] = Conversion of isolated Form 2 mesotrione to Form 1 in water in the presence of xylene at different pH; settings: xylene:mesotrione 1:5, 21 °C
Text: This is an example of the conversion of already isolated Form 2 mesotrione to Form 1 mesotrione in the presence of solvent. A 10% solution of Form 2 in water was made at different pH values ranging from 2 to 6. If seeded, a seed concentration of 2% Form 1 relative to the Form 2 mesotrione concentration was used. A 1:5 ratio of xylene to mesotrione was used in these experiments. Actual conversion time may be less than shown.

[2] = Polymorphic stability of pure mesotrione in aqueous suspension at pH 1 to 4
Procedure: 1.6 g of the re-crystallised mesotrione crystals were stirred with water (30 ml) in a reaction flask and the pH increased to 12 by the addition of sodium hydroxide. 1.5 ml of 10% hydrochloric acid was added over 15 minutes to reduce the pH of the solution to pH ranges between 1 and 4. The suspension was stirred and the polymorphic form of the crystals was determined as Form 2 by optical microscopy and FT-IR. Below pH 2.5, Form 2 transformed to Form 1 within 1 hour. At pH 3 Form 2 was stable but converted to Form 1 when seeded with Form 1 over four hours.

[3] = Stabilising Form 2 mesotrione in a 0.05% Rhodasurf DA630 solution; settings: pH 5.5, after 10 days
Procedure: 0.5 g of Form 2 mesotrione crystals were stirred with a 0.05% Rhodasurf DA630 (15 ml) in a reaction flask. A pH probe was placed in the system and the pH was increased to 11.5 by the addition of 0.6 ml of 10% sodium hydroxide solution. The pH of the solution was reduced to 5.5 by the addition of 0.74 g of Form 2 mesotrione. The polymorphic form of the mesotrione was monitored periodically by microscopy and FT-IR.

[4] = Conversion of isolated Form 2 mesotrione to Form 1 in process filtrate with TEA and NaCl; settings: not seeded
[5] = Conversion of isolated Form 2 mesotrione to Form 1 in process filtrate
[6] = Conversion of in-process Form 2 mesotrione slurry from the crystallizer to Form 1; settings: not seeded
Text: This is an example of converting in process Form 2 mesotrione to Form 1 mesotrione. Form 2 material was made in the plant via a process upset. […]

CS(=O)(=O)c1ccc(C(=O)C2C(=O)CCCC2=O)c([N+](=O)[O-])c1 [Form 2 mesotrione, 2-(4-methylsulphonyl-2-nitrobenzoyl)cyclohexane-1,3-dione]
Dominant Polymorph Form (IR) ([1]; Example 1A: 10% Form 2 in water, 6.3 hr, pH 2.0, seeded 2% Form 1): 1
Dominant Polymorph Form (IR) ([1]; Example 1B: 10% Form 2 in water, 6.3 hr, pH 2.9, seeded 2% Form 1): 2
Dominant Polymorph Form (IR) ([1]; Example 1C: 10% Form 2 in water, 6.3 hr, pH 4.1, seeded 2% Form 1): 2
Dominant Polymorph Form (IR) ([1]; Example 1D: 10% Form 2 in water, 6.3 hr, pH 5.9, seeded 2% Form 1): 2
Dominant Polymorph Form (IR) ([1]; Example 1E: 10% Form 2 in water, 6.3 hr, pH 2.5, seeded 2% Form 1): 1
Dominant Polymorph Form (IR) ([1]; Example 1F: 10% Form 2 in water, 6.3 hr, pH 5.1, seeded 2% Form 1): 2
Dominant Polymorph Form (IR) ([1]; Example 1G: 10% Form 2 in water, 23.3 hr, pH 2.0, seeded 2% Form 1): 1
Dominant Polymorph Form (IR) ([1]; Example 1H: 10% Form 2 in water, 23.3 hr, pH 2.9, seeded 2% Form 1): 2
Dominant Polymorph Form (IR) ([1]; Example 1I: 10% Form 2 in water, 23.5 hr, pH 5.9, seeded 2% Form 1): 2
Dominant Polymorph Form (IR) ([1]; Example 1J: 10% Form 2 in water, 23.5 hr, pH 2.5, seeded 2% Form 1): 1
Dominant Polymorph Form (IR) ([1]; Example 1K: 10% Form 2 in water, 23.5 hr, pH 2.0, not seeded): 1
Dominant Polymorph Form (IR) ([1]; Example 1L: 10% Form 2 in water, 22.0 hr, pH 2.0, not seeded): 1
Dominant Polymorph Form (IR) ([1]; Example 1M: 10% Form 2 in water, 22.0 hr, pH 4.0, not seeded): 2
Transformation of Form 2 to Form 1 ([2]; aqueous suspension, pH between 3.5 and 4, heated to 40° C., 1% by weight of Form 1 seeds added): would not transform to Form 1
Polymorphic form of the suspension ([2]; pH between 3.5 and 4, determined periodically over the next 3 weeks): always found to be Form 2
Transformation of Form 2 to Form 1 ([2]; pH between 3.5 and 4, samples taken several months later): had not transformed to Form 1
Time for Form 2 to transform to Form 1 ([2]; stirred aqueous suspension, below pH 2.5): ≤ 1 h
Polymorphic stability of Form 2 ([2]; stirred aqueous suspension, pH 3, not seeded): stable
Time for Form 2 to convert to Form 1 ([2]; stirred aqueous suspension, pH 3, seeded with Form 1): four
Polymorphic form (microscopy and FT-IR) [3]: still predominately Form 2
Hours to convert ([4]; Example 3A: process filtrate, temp 40, pH 1.8, no meso:TEA or meso:NaCl ratio printed, agitated): 17 h
Hours to convert ([4]; Example 3B: process filtrate, temp 50, pH 2.0, meso:TEA 1:1.3, meso:NaCl 2:1, agitated): 1 h
Hours to convert ([4]; Example 3C: process filtrate, temp 50, pH 2.0, meso:TEA 1:1.3, meso:NaCl 2:1, agitated): 5 h
Hours to convert ([4]; Example 3D: process filtrate, temp 50, pH 1.8, meso:TEA 1:1.3, meso:NaCl 2:1, agitated): 4 h
Hours to convert ([5]; Example 4A: process filtrate, temp 22, pH 3.6, agitated, seeded, did not convert after 52 hrs): Did not
Hours to convert ([5]; Example 4B: process filtrate, temp 22, pH 3.6, agitated, seeded, did not convert after 48 hrs): Did not
Hours to convert ([5]; Example 4C: process filtrate, temp 30, pH 3.6, agitated, seeded, did not convert after 18 hrs): Did not
Hours to convert ([5]; Example 4D: process filtrate, temp 50, pH 2.0, agitated, not seeded): 2 h
Hours to convert ([5]; Example 4E: process filtrate, temp 50, pH 1.8, agitated, not seeded): 2 h
Hours to convert ([5]; Example 4F: process filtrate, temp 50, pH 1.8, not agitated, not seeded): 2 h
Hours to convert ([6]; Example 2A: Form 2 slurry, 20° C., pH 3.2, not agitated, did not convert after 4-5 days): Did not
Hours to convert ([6]; Example 2B: Form 2 slurry, 40° C., pH 2.0, agitated): 4 h
Hours to convert ([6]; Example 2C: Form 2 slurry, 50° C., pH 2.0, agitated): 1.4 h
Hours to convert ([6]; Example 2D: Form 2 slurry, 50° C., pH 2.9, agitated): 1.8 h
Hours to convert ([6]; Example 2E: Form 2 slurry, 40° C., pH 2.0, agitated): 4 h
